Reference: patent US20250042857A1, “SOS1 Inhibitor With Pyrido-Fused Six-Membered Ring Structure” (HAIHE BIOPHARMA CO., LTD., priority 2021, published 2025)

What was measured:
KRAS-G12C/SOS1 = KRAS-G12C/SOS1 (Homo sapiens (Human), UniProt Q07889); test: Detection of inhibitory effects of compounds on KRAS-G12C/SOS1 (KRASG12C/SOS binding kit, HTRF); settings: Em665/620, read-out: IC50, inhibitory activity on interaction of KRAS-G12C/SOS1
Excerpt: Experimental objective: The inhibitory effects of the tested compounds on KRAS-G12C/SOS1 were detected. IC50 was used to characterize the inhibitory ability of the compounds on the KRAS-G12C/SOS1. The lower IC50 value indicated the stronger inhibitory ability. BI-3406 was used as a positive control compound.
Experimental reagents: KRASG12C/SOS binding kit (Cisbio, cat. 63ADK000CB16PEG); DMSO (Sigma, cat. D8418-1L); and 384-well white plate (PerkinElmer, cat. 6007290)
• 1. Preparation of compounds: the test compounds were dissolved in 100% DMSO to obtain 10 mM stock solutions and the stock solutions were stored in a refrigerator in the dark. • 2. Kinase reaction process:
Preparation of compounds: the test compounds had the concentration of 5,000 nM and diluted in a 384-well plate into a 100% DMSO solution at the 200-fold final concentration, and the compounds were diluted 3-fold with 10 concentrations. 50 nL of the compounds at the 200-fold final concentration were transferred to the plate of interest, the 384-well plate, using a dispenser Echo 550. 50 nL of 100% DMSO was added to each negative control well and positive control well.
A Tag1-SOS1 solution at the 4-fold final concentration was prepared using a diluent buffer.
2.5 μL of the Tag1-SOS1 solution at the 4-fold final concentration was added to the 384-well plate.
A Tag2-KRAS-G12C solution at the 4-fold final concentration was prepared using the diluent buffer.
2.5 μL of the Tag2-KRAS-G12C solution at the 4-fold final concentration was respectively added into compound wells and the positive control wells; and 2.5 μL of the diluent buffer was added to the negative control wells.
The 384-well plate was centrifuged at 1,000 rpm for 30 seconds, shaken and mixed uniformly, and incubated at room temperature for 15 minutes.
An Anti-Tag1-TB3+ solution at the 1-fold final concentration and an Anti-Tag2-XL665 solution at the 1-fold final concentration were prepared using a detection buffer, the two solutions were mixed uniformly to obtain a Mix solution, and 5 μL of the Mix solution was added into each well.
The 384-well plate was centrifuged at 1,000 rpm for 30 seconds, shaken and mixed uniformly, and incubated at 4° C. for 120 minutes.
Em665/620 was read using an Envision microplate reader.
Inhibition %=(Max signal−Compound signal)/(Max signal−Min signal)×100 Calculation formula • wherein the Min signal was the mean value of the negative control wells, and the Max signal was the mean value of the positive control wells.
A dose-response curve was fitted using the log value of the concentration as an X axis and the percentage of the inhibitory rate as a Y axis by using the log(inhibitor) vs. response-variable slope of an analytical software GraphPadPrism5, thereby obtaining the IC50 value of each compound on an enzyme activity.

p-ERK of PC-9 cells = test: p-ERK HTRF assay in PC-9 cells; assay type: cell-based; settings: Homo sapiens, PC-9, 1 h, PC-9 lung cancer cells, 1 hour treatment, read-out: IC50, inhibitory activity on p-ERK of PC-9 cells
Procedure: IC50 Values of Compounds Determined by p-ERK HTRF Assay in PC-9 Cells
Experimental objective: an inhibitory effect of the test compounds on the phosphorylation of PC-9ERK of lung cancer cells at a cellular level was evaluated by detecting the phosphorylation of ERK.
• PRMI 1640 medium (Invitrogen-11875093) • 0.25% pancreatin (Invitrogen-25200056) • Phosphoric acid buffer salt solution (PBS, pH 7.4) (Invitrogen-10010023) • Double-antibody (PS) (Invitrogen-15140122) • Fetal bovine serum (FBS) (Gibco-10091148) • Trypan blue (Gibco-15250061) • 10-cm culture dish (Corning-430167) • 10-mL pipette (Costar-4488) • Pipettor (Sartorius-17009031) • 15-mL centrifuge tube (Corning-430052) • 50-mL centrifuge tube (Corning-430829) • Cryotube (Thermo-377267) • 1.5-mL EP tube (Axygen-MCT-150-C-S) • Cell incubator (Thermo-371) • Microscope (Olympus-CKX41) • Centrifuge (Flying Pigeon-TDL-80-2B) • Cell counter (Countstar-IC-1000) • Envision (Perkin Elmer) • Spark 10M (TECAN) • Phospho-ERK1/2 (Thr202/Tyr204) Experimental kit (Cisbio, Cat. No. 64AERPEG) • PC-9 cells: RPMI1640+10% FBS+1% PS
• 1) PBS, 0.25% pancreatin, and a cell culture medium were placed in a water-bath kettle at 37° C. for preheating; • 2) cells were observed under a microscope, a fusion degree was evaluated, and no bacterial and fungi pollution was confirmed; • 3) a culture solution was removed, the cells were washed with 5 mL of PBS and digested with 2 mL of the 0.25% trypsin, the digestion was terminated with 10 mL of the fresh cell culture medium, a culture dish was rinsed, and the cells were transferred to a 15-mL centrifuge tube; • 4) the collected cells were centrifuged at 1,000 rpm for 5 minutes; • 5) after the centrifugation, the supernatant was discarded, the cells were resuspended in 5 mL of the cell culture medium, 20 μL of the resuspended cells were aspirated, and the number and viability of viable cells were recorded; • 6) the cell culture medium was used and the cell density was adjusted (PC-9:10,000 cells/well, and 45 μL per well); • 7) in a 384-well plate, 45 μL of a cell suspension per well was transferred according to an experimental design figure; and • 8) the cells were incubated overnight at 37° C. and 5% CO2.
• 1) The compounds were diluted from the stock concentration to 10 mM with 100% DMSO (Trametinib was diluted to 1 mM), then 3-fold diluted into 10 points (5 μL of the diluted compounds with the concentration of 10 mM were transferred to 10 μL of the DMSO in an LDV plate), and centrifuged at 1,000 rpm/min for 1 minute; • 2) 5 μL of the diluted compounds of step 1) were transferred to an inter plate 1 containing 45 μL of the cell culture medium (the compounds were diluted from 1,000× to 100×); • 3) 5 μL of the diluted compounds of step 2) were transferred to an inter plate 2 containing 45 μL of the cell culture medium (the compounds were diluted from 100× to 10×); • 4) 5 μL of the compounds were pipetted from the inter plate 2 into a cell culture plate (the compounds were diluted from 10 folds to 1 fold), the final concentrations of the test compounds were 10,000 nM, 3333.33 nM, 1111.11 nM, 370.37 nM, 123.46 nM, 41.15 nM, 13.72 nM, 4.57 nM, 1.52 nM, and […], the solution was centrifuged at 1,000 rpm/min for 1 minute, and the final content of the DMSO was 0.1%; and • 5) the cells were treated in an incubator at 37° C. for 1 hour. […]

Chain of KRAS-G12C/SOS1 (Q07889 whole entry, stated change not applied): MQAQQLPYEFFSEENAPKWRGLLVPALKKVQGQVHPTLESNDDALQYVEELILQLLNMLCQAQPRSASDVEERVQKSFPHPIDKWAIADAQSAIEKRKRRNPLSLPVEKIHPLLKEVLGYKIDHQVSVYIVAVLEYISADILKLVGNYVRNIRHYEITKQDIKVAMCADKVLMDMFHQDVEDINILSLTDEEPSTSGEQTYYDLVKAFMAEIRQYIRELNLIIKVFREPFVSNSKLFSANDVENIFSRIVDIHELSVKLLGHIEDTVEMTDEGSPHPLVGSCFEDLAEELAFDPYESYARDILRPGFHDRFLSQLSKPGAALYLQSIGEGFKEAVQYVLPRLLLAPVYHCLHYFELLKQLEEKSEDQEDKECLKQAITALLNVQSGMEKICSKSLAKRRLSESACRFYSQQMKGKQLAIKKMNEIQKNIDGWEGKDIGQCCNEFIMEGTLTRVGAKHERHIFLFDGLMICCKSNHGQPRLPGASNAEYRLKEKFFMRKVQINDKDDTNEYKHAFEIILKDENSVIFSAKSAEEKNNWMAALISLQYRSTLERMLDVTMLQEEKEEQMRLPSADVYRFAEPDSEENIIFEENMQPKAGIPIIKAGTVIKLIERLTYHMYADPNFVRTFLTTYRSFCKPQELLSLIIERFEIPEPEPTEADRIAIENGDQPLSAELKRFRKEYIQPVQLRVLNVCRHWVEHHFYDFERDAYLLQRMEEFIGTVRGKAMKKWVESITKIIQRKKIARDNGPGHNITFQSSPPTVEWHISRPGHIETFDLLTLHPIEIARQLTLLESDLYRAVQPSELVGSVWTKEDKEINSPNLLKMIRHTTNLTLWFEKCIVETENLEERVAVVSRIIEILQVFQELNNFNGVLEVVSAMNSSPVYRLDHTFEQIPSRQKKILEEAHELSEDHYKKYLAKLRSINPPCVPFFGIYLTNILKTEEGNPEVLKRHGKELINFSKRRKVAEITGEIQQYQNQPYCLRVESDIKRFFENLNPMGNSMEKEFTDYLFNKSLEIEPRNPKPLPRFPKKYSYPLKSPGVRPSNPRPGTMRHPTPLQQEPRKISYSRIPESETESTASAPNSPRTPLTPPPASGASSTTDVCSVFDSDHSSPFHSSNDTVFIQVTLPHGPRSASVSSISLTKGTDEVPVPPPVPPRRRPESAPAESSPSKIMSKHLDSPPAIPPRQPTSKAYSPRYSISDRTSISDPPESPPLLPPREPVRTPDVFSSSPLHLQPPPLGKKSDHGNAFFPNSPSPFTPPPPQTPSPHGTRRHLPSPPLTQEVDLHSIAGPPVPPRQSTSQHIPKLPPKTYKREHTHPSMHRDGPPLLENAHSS

| SMILES | IC50 (KRAS-G12C/SOS1) [nM] | IC50 (p-ERK of PC-9 cells) [nM] |
| --- | --- | --- |
| COc1cc2nccc(N[C@H](C)c3cccc(C(F)F)c3F)c2cc1C1CCN(C(C)=O)CC1 [Compound A-40] | ≤ 100 | – |
| COc1cc2nccc(N[C@H](C)c3cccc(C#N)c3C)c2cc1O[C@H]1CCOC1 [Compound A-4] | 100 to 500 | – |
| C[C@@H](Nc1ccnc2cnc(N3CCN(C(=O)C4CCOCC4)CC3)cc12)c1cccc(C(F)F)c1F [Compound B-27] | – | ≤ 300 |
| CNC(=O)C1CCN(c2cc3c(N[C@H](C)c4cccc(C(F)F)c4F)ccnc3cn2)C(=O)C1 (stereo partly drawn) [Compound B-55] | ≤ 100 | – |
| COc1cc2nccc(N[C@H](C)c3cccc(C(F)F)c3F)c2cc1C1=CCS(=O)(=O)CC1 [Compound A-45] | ≤ 100 | – |
| COc1cc2nccc(N[C@H](C)c3cccc(C(F)F)c3F)c2cc1C1(OC)CCN(C(C)=O)CC1 [Compound A-59] | ≤ 100 | – |
| COc1cc2nccc(N[C@H](C)c3cccc(C(F)F)c3F)c2cc1C1CCN(S(C)(=O)=O)CC1 [Compound A-41] | ≤ 100 | – |
| COc1cc2nccc(N[C@H](C)c3cccc(C(F)F)c3F)c2cc1C1CCS(=O)(=O)CC1 [Compound A-46] | ≤ 100 | – |
| COc1cc2nccc(N[C@H](C)c3cccc(C(F)F)c3F)c2cc1O[C@H]1CCNC1 [Compound A-5] | ≤ 100 | – |
| COc1cc2nccc(N[C@H](C)c3cccc(C(F)F)c3F)c2cc1C1=CCN(C(C)=O)CC1 [Compound A-39] | ≤ 100 | – |
| COc1cc2nc(C)cc(N[C@H](C)c3cccc(C(F)F)c3F)c2cc1OC [Compound A-2] | ≤ 100 | – |
| C[C@@H](Nc1ccnc2cnc(N3CCn4cncc4C3)cc12)c1cccc(C(F)F)c1F [Compound B-30] | – | ≤ 300 |
| COc1cc2nccc(N[C@H](C)c3cccc(C(F)F)c3F)c2cc1O[C@H]1CCN(C(C)=O)C1 [Compound A-6] | ≤ 100 | – |
| C[C@@H](Nc1ccnc2cnc(N3CCN(C(=O)C4COC4)CC3)cc12)c1cccc(C(F)F)c1F [Compound B-26] | – | ≤ 300 |
| COc1cc2nccc(N[C@H](C)c3cccc(C(F)F)c3F)c2cc1C1(O)CCN(C(C)=O)CC1 [Compound A-58] | ≤ 100 | – |
| COc1cc2nccc(N[C@H](C)c3cccc(C(F)F)c3F)c2cc1OC1CCNCC1 [Compound A-17] | ≤ 100 | – |
| COc1cc2nccc(N[C@H](C)c3cccc(C(F)F)c3F)c2cc1O[C@@H]1CCN(C(C)=O)C1 [Compound A-7] | 100 to 500 | – |
| COc1cc2nccc(N[C@H](C)c3cccc(C(F)F)c3F)c2cc1OC [Compound A-1] | ≤ 100 | – |
| COc1cc2nccc(N[C@H](C)c3cccc(C(F)F)c3F)c2cc1OC1CCN(C(C)=O)CC1 [Compound A-18] | ≤ 100 | – |
| C[C@@H](Nc1ccnc2cnc(N3CCN(CCO)CC3)cc12)c1cccc(C(F)F)c1F [Compound B-43] | ≤ 100 | – |
| COc1cc2nccc(N[C@H](C)c3cccc(C(F)F)c3F)c2cc1O[C@H]1CCOC1 [Compound A-3] | ≤ 100 | – |
| COc1cc2c(N[C@H](C)c3cccc(C(F)F)c3F)ccnc2cc1OC1CCN(C(C)=O)CC1 [Compound A-16] | ≤ 100 | – |

Further lines, results first:

| IC50 (KRAS-G12C/SOS1) [nM] | IC50 (p-ERK of PC-9 cells) [nM] | SMILES |
| --- | --- | --- |
| ≤ 100 | – | COC(=O)C1CCC(O)(c2cc3c(N[C@H](C)c4cccc(C(F)F)c4F)ccnc3cn2)CC1 (stereo partly drawn) [Compound B-99] |
| ≤ 100 | – | CC(=O)C1CCN(c2cc3c(N[C@H](C)c4cccc(C(F)F)c4F)ccnc3c(C)n2)CC1 [Compound B-66] |
| 100 to 500 | – | Cc1c([C@@H](C)Nc2ccnc3cnc(C4(O)CCC(O)CC4)cc23)cccc1C(F)(F)F (single isomer, unassigned) [Compound B-84-P2] |
| ≤ 100 | – | Cc1cc(N[C@H](C)c2cccc(C(F)F)c2F)c2cc(C3(O)CCC(O)CC3)ncc2n1 (single isomer, unassigned) [Compound B-88-P1] |
| ≤ 100 | – | C[C@@H](Nc1ccnc2cnc(N3CCC(O)C3=O)cc12)c1cccc(C(F)F)c1F (stereo partly drawn) [Compound B-58] |
| ≤ 100 | – | C[C@@H](Nc1ccnc2cnc(N3CCCC3=O)cc12)c1cccc(C(F)F)c1F [Compound B-59] |
| – | > 1000 | C[C@@H](Nc1ccnc2cnc(C3(O)CCN(C(=O)C[C@H]4CNCCO4)CC3)cc12)c1cccc(C(F)F)c1F [Compound B-143] |
| ≤ 100 | – | C[C@@H](Nc1ccnc2cnc(C3(O)CCC(N4CCNCC4)CC3)cc12)c1cccc(C(F)F)c1F (single isomer, unassigned) [Compound B-97-P1] |
| 100 to 500 | – | C[C@@H](Nc1ccnc2cnc(N3CC(O)CC3=O)cc12)c1cccc(C(F)F)c1F (stereo partly drawn) [Compound B-57] |
| ≤ 100 | – | C[C@@H](Nc1ccnc2cnc(C(C)(O)C3CC3)cc12)c1cccc(C(F)F)c1F (stereo partly drawn) [Compound B-106] |
| ≤ 100 | – | C[C@@H](Nc1ccnc2cnc(C(C)(C)O)cc12)c1cccc(C(F)F)c1F [Compound B-105] |
| ≤ 100 | – | C[C@@H](Nc1ccnc2cnc(N3C[C@@H](O)C[C@H]3CO)cc12)c1cccc(C(F)F)c1F [Compound B-77] |
| 100 to 500 | – | Cc1c([C@@H](C)Nc2ccnc3cnc(C4(O)CCC(O)CC4)cc23)cccc1C(F)(F)F (single isomer, unassigned) [Compound B-84-P1] |
| ≤ 100 | – | C[C@@H](Nc1ccnc2cnc(N3CCC(N(C)C)CC3)cc12)c1cccc(C(F)F)c1F [Compound B-61] |
| 100 to 500 | – | Cc1c(C(F)F)cccc1[C@@H](C)Nc1ccnc2cnc(C3(O)CCC(O)CC3)cc12 (single isomer, unassigned) [Compound B-86-P2] |
| ≤ 100 | – | C[C@@H](Nc1ccnc2cnc(C3(O)CCC(N(C)C)CC3)cc12)c1cccc(C(F)F)c1F (single isomer, unassigned) [Compound B-94-P1] |
| 100 to 500 | – | Cc1c(C(F)F)cccc1[C@@H](C)Nc1ccnc2cnc(C3(O)CCC(O)CC3)cc12 (single isomer, unassigned) [Compound B-86-P1] |
